Data from patent publication US12660819B2, “Herbicidal derivatives” (SYNGENTA CROP PROTECTION AG, priority 2020, dated 2026).

Legend:
Type in all cases: in vivo
Zea mays (ZEAMX) [1] = test: Pre-emergence Test (glasshouse, percentage damage to the plant); details: 1000 g/ha unless otherwise stated, five-point scale
[2] = tested on: Abutilon theophrasti (ABUTH); test: as above; details: 1000 g/ha unless otherwise stated, five-point scale
[3] = tested on: Ipomoea hederacea (IPOHE); test: as above; details: 1000 g/ha unless otherwise stated, five-point scale
[4] = tested on: Echinochloa crus-galli (ECHCG); test: as above; details: 1000 g/ha unless otherwise stated, five-point scale
Setaria faberi (SETFA) [5] = test: Post-emergence Test (glasshouse, percentage damage to the plant); details: post-emergence spray, 1000 g/ha unless otherwise stated, evaluated after 13 days
In short: (§1)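 Scored 13 days after spraying as percentage plant damage in five bands (5=81–100%, 4=61–80%, 3=41–60%, 2=21–40%, 1=0–20%). Spray at 1000 g/ha unless stated, in acetone/water 50:50 plus 0.5% Tween 20, onto sown glasshouse pots (24/16 °C, 14 h light, 65% humidity).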

Zea mays (ZEAMX) [6] = test: as above; details: post-emergence spray, 1000 g/ha unless otherwise stated, evaluated after 13 days
In short: as §1

[7] = tested on: Echinochloa crus-galli (ECHCG); test: as above; details: post-emergence spray, 1000 g/ha unless otherwise stated, evaluated after 13 days
In short: (§2)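 Seeds sown in pots in glasshouse (24/16 °C day/night, 14 h light, 65% humidity), then sprayed with compound at 1000 g/ha unless stated, from acetone/water 50:50 with 0.5% Tween 20. Damage assessed 13 days later on five-point scale (1=0–20% to 5=81–100%).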

[8] = tested on: Abutilon theophrasti (ABUTH); test: as above; details: post-emergence spray, 1000 g/ha unless otherwise stated, evaluated after 13 days
In short: as §2

[9] = tested on: Ipomoea hederacea (IPOHE); test: as above; details: post-emergence spray, 1000 g/ha unless otherwise stated, evaluated after 13 days
In short: as §1

[10] = tested on: Amaranthus retoflexus (AMARE); test: as above; details: post-emergence spray, 1000 g/ha unless otherwise stated, evaluated after 13 days
In short: as §2

Setaria faberi (SETFA) [11] = test: Pre-emergence Test (glasshouse, percentage damage to the plant); details: 1000 g/ha unless otherwise stated, five-point scale
[12] = tested on: Amaranthus retoflexus (AMARE); test: as above; details: 1000 g/ha unless otherwise stated, five-point scale

CCn1c(C)c(-c2ccc(Cl)c(C(=O)NC3CC3)c2)c(=O)c(C(=O)O)c1-c1ccc(Cl)c(Cl)c1 [Compound 83, 5-[4-chloro-3-(cyclopropylcarbamoyl)phenyl]-2-(3,4-dichlorophenyl)-1-ethyl-6-methyl-4-oxo-pyridine-3-carboxylic acid]
2 (2=21-40%): Post-emergence Test SETFA, percentage damage to the plant (five-point scale) (Setaria faberi (SETFA) [5]) | Post-emergence Test ABUTH, percentage damage to the plant (five-point scale) [8]
1 (1=0-20%): percentage damage to the plant, ZEAMX (Zea mays (ZEAMX) [1]) | percentage damage to the plant, ABUTH [2] | percentage damage to the plant, IPOHE [3] | percentage damage to the plant, ECHCG [4] | Post-emergence Test ZEAMX, percentage damage to the plant (five-point scale) (Zea mays (ZEAMX) [6]) | Post-emergence Test ECHCG, percentage damage to the plant (five-point scale) [7] | Post-emergence Test IPOHE, percentage damage to the plant (five-point scale) [9] | Post-emergence Test AMARE, percentage damage to the plant (five-point scale) [10] | percentage damage to the plant, SETFA (Setaria faberi (SETFA) [11]) | percentage damage to the plant, AMARE [12]

CCn1c(C)c(-c2cc(F)c(OC)c(F)c2)c(=O)c(C(=O)O)c1-c1ccc(Cl)c(Cl)c1 [Compound 84, 2-(3,4-dichlorophenyl)-5-(3,5-difluoro-4-methoxy-phenyl)-1-ethyl-6-methyl-4-oxo-pyridine-3-carboxylic acid]
2 (2=21-40%): Post-emergence Test AMARE, percentage damage to the plant (five-point scale) [10]
4 (4=61-80%): percentage damage to the plant, SETFA (Setaria faberi (SETFA) [11])
1 (1=0-20%): percentage damage to the plant, ZEAMX (Zea mays (ZEAMX) [1]) | percentage damage to the plant, ECHCG [4] | Post-emergence Test ZEAMX, percentage damage to the plant (five-point scale) (Zea mays (ZEAMX) [6]) | Post-emergence Test ECHCG, percentage damage to the plant (five-point scale) [7] | percentage damage to the plant, AMARE [12]
3 (3=41-60%): percentage damage to the plant, ABUTH [2] | percentage damage to the plant, IPOHE [3] | Post-emergence Test SETFA, percentage damage to the plant (five-point scale) (Setaria faberi (SETFA) [5]) | Post-emergence Test ABUTH, percentage damage to the plant (five-point scale) [8] | Post-emergence Test IPOHE, percentage damage to the plant (five-point scale) [9]

CCn1c(C)c(-c2cncc(F)c2)c(=O)c(C(=O)O)c1-c1ccc(Cl)c(Cl)c1 [Compound 85, 2-(3,4-dichlorophenyl)-1-ethyl-5-(5-fluoro-3-pyridyl)-6-methyl-4-oxo-pyridine-3-carboxylic acid]
3 (3=41-60%): Post-emergence Test SETFA, percentage damage to the plant (five-point scale) (Setaria faberi (SETFA) [5]) | Post-emergence Test ABUTH, percentage damage to the plant (five-point scale) [8]
1 (1=0-20%): percentage damage to the plant, ZEAMX (Zea mays (ZEAMX) [1]) | percentage damage to the plant, IPOHE [3] | percentage damage to the plant, ECHCG [4] | Post-emergence Test ZEAMX, percentage damage to the plant (five-point scale) (Zea mays (ZEAMX) [6]) | Post-emergence Test ECHCG, percentage damage to the plant (five-point scale) [7] | Post-emergence Test IPOHE, percentage damage to the plant (five-point scale) [9] | Post-emergence Test AMARE, percentage damage to the plant (five-point scale) [10] | percentage damage to the plant, AMARE [12]
2 (2=21-40%): percentage damage to the plant, ABUTH [2]
4 (4=61-80%): percentage damage to the plant, SETFA (Setaria faberi (SETFA) [11])

CCn1c(C)c(-c2cc(C)cs2)c(=O)c(C(=O)O)c1-c1ccc(Cl)c(Cl)c1 [Compound 86, 2-(3,4-dichlorophenyl)-1-ethyl-6-methyl-5-(4-methyl-2-thienyl)-4-oxo-pyridine-3-carboxylic acid]
3 (3=41-60%): percentage damage to the plant, ECHCG [4] | Post-emergence Test ECHCG, percentage damage to the plant (five-point scale) [7] | Post-emergence Test IPOHE, percentage damage to the plant (five-point scale) [9]
4 (4=61-80%): Post-emergence Test SETFA, percentage damage to the plant (five-point scale) (Setaria faberi (SETFA) [5]) | Post-emergence Test ABUTH, percentage damage to the plant (five-point scale) [8] | Post-emergence Test AMARE, percentage damage to the plant (five-point scale) [10] | percentage damage to the plant, AMARE [12]
1 (1=0-20%): percentage damage to the plant, ZEAMX (Zea mays (ZEAMX) [1]) | percentage damage to the plant, IPOHE [3] | Post-emergence Test ZEAMX, percentage damage to the plant (five-point scale) (Zea mays (ZEAMX) [6])
2 (2=21-40%): percentage damage to the plant, ABUTH [2]
5 (5=81-100%): percentage damage to the plant, SETFA (Setaria faberi (SETFA) [11])
